Tested on: Balb/c mice
Assay: delayed type hypersensitivity (DTH) reaction in the mouse ear, OXA-sensitized mice
Assay type: in vivo
Conditions: for Diff. Tt24-Tt0: ear thickness 24 hours after challenge; for Diff. Tt24-Tt0 / Diff Tt48-Tt0 / Diff Tt24-Tt0: mean; for Diff Tt48-Tt0: ear thickness 48 hours after challenge; for Diff Tt24-Tt0: L-forms
Excerpt: The property of the compounds diNAC, diBUT, diVAL, diCAP, diMeNAC, diEtNAC and diMeVAL to stimulate immune responses is illustrated by their efficacy in a model of the delayed type hypersensitivity (DTH) reaction in the mouse.
Both male and female Balb/c mice obtained from Bomholtsgaard (Denmark) and Charlie Rivers (England), were used at the weight of 18-20 gram. 4-ethoxymethylene-2-phenyloxazolone (OXA) was purchased from BDH (England) and served as an antigen in this test.
The mice were sensitized, Day 0, by epicutaneous application of 150 µl absolute ethanol-acetone (3:1) solution containing 3% OXA on the shaved thorax and abdomen. Treatment with the L-form of diNAC, diMeNAC, diEtNAC, diMeVAL, or vehicle (phosphate buffer, pH 7.0) was initiated by oral feeding immediately after sensitization and continued once daily to Day 6. […] after the sensitization both ears of all mice were challenged on both sides by topical application of 20 µl 1% OXA dissolved in peanut oil. Ear thickness was measured prior to and 24 or 48 hours after challenge using an Oditest spring calliper. Challenges and measurements were performed under light pentobarbital anasthesia. The intensity of the DTH reactions was expressed according to the formula: Tt24/48-Tt0 µm units, where t0, t24 and t48 represent the ear thickness before and 24 or 48 hours after challenge, respectively, in an individual […]. The results were expressed as the mean +/-S.E.M. The level of significance between means of the groups was obtained by Student's two-tailed t-test. Tables 1 and 2 show the results from 24 and 48 hours measurements, respectively, from a representative experiment with the L-form of diNAC. […]

[1] = 0.03 µmol/kg oral once daily Day 0 to Day 6
[2] = 0.30 µmol/kg oral once daily Day 0 to Day 6
[3] = 3.0 µmol/kg oral once daily Day 0 to Day 6
[4] = 30.0 µmol/kg oral once daily Day 0 to Day 6
[5] = Table 3, 24 h after challenge, 0.03 µmol/kg oral
[6] = Table 3, 24 h after challenge, 3.0 µmol/kg oral
[7] = Table 3, 48 h section, 0.03 µmol/kg oral
[8] = Table 3, 48 h section, 3.0 µmol/kg oral

SMILES: CC(=O)N[C@@H](CSSC[C@H](NC(C)=O)C(=O)O)C(=O)O [L-diNAC, N,N'-diacetyl-L-cystine]
- Diff. Tt24-Tt0 [1]: 13.75 µm units
- Diff. Tt24-Tt0 [2]: 15.70 µm units
- Diff. Tt24-Tt0 [3]: 18.30 µm units
- Diff. Tt24-Tt0 [4]: 20.67 µm units
- Diff Tt48-Tt0 [1]: 11.65 µm units
- Diff Tt48-Tt0 [2]: 12.65 µm units
- Diff Tt48-Tt0 [3]: 14.95 µm units
- Diff Tt48-Tt0 [4]: 13.63 µm units
- ear thickness after oral administration (result in words, 24 and 48 hours after challenge, oral): significant increase of the ear thickness in a concentration-response manner

SMILES: CCCC(=O)N[C@@H](CSSC[C@H](NC(=O)CCC)C(=O)O)C(=O)O [diBUT, N,N' - dibutyrylcystine]
- immunostimulating effect in the DTH reaction in the mouse ear (result in words): highly potent and efficient immunostimulating agents

SMILES: CCCCCCCC(=O)N[C@@H](CSSC[C@H](NC(=O)CCCCCCC)C(=O)O)C(=O)O [diCAP, N,N'-dicaprylylcystine]
- immunostimulating effect in the DTH reaction in the mouse ear (result in words): highly potent and efficient immunostimulating agents

SMILES: CCOC(=O)[C@H](CSSC[C@H](NC(C)=O)C(=O)OCC)NC(C)=O [diEtNAC, N,N'-diacetylcystine diethyl ester]
- Diff Tt24-Tt0 [5]: 11.75 µm units
- Diff Tt24-Tt0 [6]: 13.05 µm units
- Diff Tt24-Tt0 [7]: 13.15 µm units
- Diff Tt24-Tt0 [8]: 13.20 µm units
- immunostimulating effect in the DTH reaction in the mouse ear (result in words): highly potent and efficient immunostimulating agents

SMILES: COC(=O)[C@H](CSSC[C@H](NC(C)=O)C(=O)OC)NC(C)=O [diMeNAC, N,N'-diacetylcystine dimethyl ester]
- Diff Tt24-Tt0 [5]: 18.00 µm units
- Diff Tt24-Tt0 [6]: 12.55 µm units
- Diff Tt24-Tt0 [7]: 12.85 µm units
- Diff Tt24-Tt0 [8]: 13.35 µm units
- immunostimulating effect in the DTH reaction in the mouse ear (result in words): highly potent and efficient immunostimulating agents

SMILES: COC(=O)[C@H](CSSC[C@H](NC(=O)CC(C)C)C(=O)OC)NC(=O)CC(C)C [diMeVAL, N,N'-diisovalerylcystine dimethyl ester]
- immunostimulating effect in the DTH reaction in the mouse ear (result in words): highly potent and efficient immunostimulating agents

SMILES: CC(=O)N[C@@H](CSSC[C@H](NC(C)=O)C(=O)O)C(=O)O [diNAC, N,N'-diacetylcystine]
- immunostimulating effect in the DTH reaction in the mouse ear (result in words): highly potent and efficient immunostimulating agents

SMILES: CC(C)CC(=O)N[C@@H](CSSC[C@H](NC(=O)CC(C)C)C(=O)O)C(=O)O [diVAL, N,N'-diisovalerylcystine]
- immunostimulating effect in the DTH reaction in the mouse ear (result in words): highly potent and efficient immunostimulating agents
